Reference: ChEMBL document CHEMBL4422615, “Novel non-xanthine antagonist of the A2B adenosine receptor: From HTS hit to lead structure” (Eur J Med Chem, 2019)

Experiments:
Homo sapiens [1] = species: Homo sapiens; assay: Selectivity index, ratio of IC50 for human A2A adenosine receptor expressed in HEK293 cell membranes to IC50 for human A2B adenosine receptor expressed in HEK293 cell membranes; assay type: cell-based
Homo sapiens [2] = species: Homo sapiens; assay: Selectivity index, ratio of IC50 for human A3 adenosine receptor expressed in HEK293 cell membranes to IC50 for human A2B adenosine receptor expressed in HEK293 cell membranes; assay type: cell-based
Homo sapiens [3] = species: Homo sapiens; assay: Selectivity index, ratio of IC50 for human A1 adenosine receptor expressed in CHO cell membranes to IC50 for human A2B adenosine receptor expressed in HEK293 cell membranes; assay type: cell-based
Adenosine receptor A2b = molecular target: T1, Adenosine receptor A2b (Homo sapiens, UniProt P29275); assay: Displacement of [3H]DPCPX from human A2B adenosine receptor expressed in HEK293 cell membranes after 60 mins by radioligand displacement assay
T1 sequence (P29275 whole entry): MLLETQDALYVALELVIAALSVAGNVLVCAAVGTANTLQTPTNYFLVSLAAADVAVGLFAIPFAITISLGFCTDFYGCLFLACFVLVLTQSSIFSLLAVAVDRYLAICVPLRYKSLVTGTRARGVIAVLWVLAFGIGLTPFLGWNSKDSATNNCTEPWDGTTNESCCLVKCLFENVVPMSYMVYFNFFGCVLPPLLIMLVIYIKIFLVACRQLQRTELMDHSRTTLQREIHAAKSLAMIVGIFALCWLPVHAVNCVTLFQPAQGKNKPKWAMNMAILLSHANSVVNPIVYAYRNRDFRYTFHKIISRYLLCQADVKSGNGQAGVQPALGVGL

[4] = Intrinsic clearance in rat hepatocytes by MS/MS analysis; assay type: ADME, cell-based, Hepatocyte; conditions: read-out: CLH (converted)

| IC50 (Adenosine receptor A2b) [nM] | predicted hepatic clearance [4] [mL/min/kg] | Compound | Ratio IC50 (Homo sapiens [1]) | Ratio IC50 (Homo sapiens [2]) | Ratio IC50 (Homo sapiens [3]) |
| --- | --- | --- | --- | --- | --- |
| 130 |  | Cc1csc2c1c(=O)n(CCc1ccccc1)c(=O)n2Cc1ncc[nH]1 | 35 | 51 | 11 |
| 145 |  | Cc1csc2c1c(=O)n(CCc1ccccc1)c(=O)n2Cc1nccn1C | 21 | 46 | 4 |
| 1100 |  | Cc1csc2c1c(=O)n(CCc1ccccc1)c(=O)n2Cc1nc2cc(S(N)(=O)=O)ccc2o1 | 2 | 6 | 0.83 |
| 2100 | 55 | COCCn1c(=O)n(CCc2ccccc2)c(=O)c2c(C)c(C(=O)O)sc21 | 5 |  | 5 |
| 55 | 66.7 | Cc1csc2c1c(=O)n(CCc1cccnc1)c(=O)n2CCC(F)(F)F | 21 | 120 | 40 |
| 2800 |  | COCCn1c(=O)n(CCc2ccccc2)c(=O)c2c(C)c(C(F)(F)c3ccccc3)sc21 | 3 | 2 | 0.36 |
| 390 |  | COCCn1c(=O)n(CCc2ccccc2)c(=O)c2c(C)c(C(=O)N(C)OC)sc21 | 4 | 17 | 9 |
| 200 | 61.7 | COCCn1c(=O)n(CCc2ccccc2)c(=O)c2c(C)c(CN3CCCC3)sc21 |  |  |  |
| 4700 |  | COCCn1c(=O)n(CCc2ccccc2)c(=O)c2ccsc21 | 2 | 1 | 2 |
| 760 |  | COCCn1c(=O)n(CCc2ccccc2)c(=O)c2c(C)c(CN3CCOCC3)sc21 | 7 | 9 | 1 |
| 42 | 66.7 | CCN(CC)C(=O)c1sc2c(c1C)c(=O)n(CCc1ccccc1)c(=O)n2CCOC | 3 | 160 | 23 |
| 50 | 40 | CCN(CCO)C(=O)c1sc2c(c1C)c(=O)n(CC)c(=O)n2CCC(F)(F)F | 21 | 130 | 13 |
| 56 | 66.7 | Cc1csc2c1c(=O)n(CCc1ccccc1)c(=O)n2CCC(F)(F)F | 81 | 120 | 25 |
| 440 |  | CCn1c(=O)c2c(C)c(C)sc2n(CCOC)c1=O | 8 | 15 | 9 |
| 8.8 | 61.7 | COCCn1c(=O)n(CCc2ccccc2)c(=O)c2c(C)c(Cc3c[nH]c(C)n3)sc21 | 510 | 750 | 110 |
| 14 | 68.3 | COCCn1c(=O)n(CCc2ccccc2)c(=O)c2c(C)c(C(O)C3CC3)sc21 (stereo not drawn) | 11 | 480 | 10 |
| 4900 |  | COCCn1c(=O)n(CCc2ccccc2)c(=O)c2c(C)c(-c3ccccc3)sc21 | 2 | 1 | 0.65 |
|  |  | Cc1csc2c1c(=O)n(CCc1ccccc1)c(=O)n2CC1CCCO1 (stereo in doubt; 7) | 62 | 37 | 46 |
| 200 | 6.83 to 10 | CCn1c(=O)c2c(C)c(C(=O)N3CC(O)C3)sc2n(CCC(F)(F)F)c1=O | 7 | 32 | 8 |
| 97 | 60 | CCN(CC)C(=O)c1sc2c(c1C)c(=O)n(CCOC)c(=O)n2CCC(F)(F)F | 0.83 | 68 | 22 |
| 190 |  | COCCn1c(=O)n(CCc2ccccc2)c(=O)c2c(C)c(C(=O)c3cn(C)cn3)sc21 | 9 | 35 | 4 |
| 30 | 68.3 | COCCn1c(=O)n(CCc2ccccc2)c(=O)c2c(C)c(C(O)c3ccccc3)sc21 (stereo not drawn) | 21 | 230 | 1 |
| 150 |  | COCCn1c(=O)n(CCc2ccccc2)c(=O)c2c(C)c(CO)sc21 | 40 | 43 | 11 |
| > 10000 |  | COCCn1c(=O)n(CCN2CCS(=O)(=O)CC2)c(=O)c2c(C)csc21 | 1 | 1 | 1 |
| 200 |  | COCCn1c(=O)n(CCc2ccccc2)c(=O)c2c(C)c(C)sc21 |  | 33 | 12 |
| 2300 |  | COCCn1c(=O)n(CCc2ccccc2)c(=O)c2c(C)c(C(=O)c3ccccc3)sc21 | 3 |  | 0.6 |
| 1200 |  | COCCn1c(=O)n(CCc2ccccc2)c(=O)c2c(C)c(C(C)(O)c3cncn3C)sc21 (stereo not drawn) | 3 | 6 | 2 |

| IC50 (Adenosine receptor A2b) [nM] | predicted hepatic clearance [4] [mL/min/kg] | Compound | Ratio IC50 (Homo sapiens [1]) | Ratio IC50 (Homo sapiens [2]) | Ratio IC50 (Homo sapiens [3]) |
| --- | --- | --- | --- | --- | --- |
| 2.4 | 66.7 | COCCn1c(=O)n(CCc2ccccc2)c(=O)c2c(C)c(Cc3nc[nH]c3C)sc21 | 180 | 2800 | 93 |
| 280 | 61.7 | COCCn1c(=O)n(CCc2cccnc2)c(=O)c2c(C)csc21 | 29 | 23 | 39 |
| 1600 |  | COCCn1c(=O)n(CC(C)(C)C)c(=O)c2c(C)csc21 | 7 | 4 | 7 |
| 790 |  | COCCn1c(=O)n(CCc2ccccc2)c(=O)c2c(C)c(C(=O)C3CC3)sc21 | 1 | 8 | 0.57 |
| > 10000 |  | Cc1csc2c1c(=O)n(CCc1ccccc1)c(=O)n2CC(=O)Nc1cc(Cl)ccc1C(=O)O |  |  |  |
| 220 |  | CCn1c(=O)c2c3c(sc2n(CCOC)c1=O)CCC3 | 11 | 30 | 18 |
| 640 |  | CCn1c(=O)c2c(C)csc2n(CCOC)c1=O | 11 | 10 | 6 |
|  |  | Cc1csc2c1c(=O)n(CCc1ccccc1)c(=O)n2CC1CCCO1 (racemic) | 21 | 13 | 13 |
| 250 |  | COCCn1c(=O)n(CCc2ccccc2)c(=O)c2c(C)c(COC3CCCC3)sc21 | 7 | 27 | 4 |
| 490 |  | COCCn1c(=O)n(CCc2ccccc2)c(=O)c2c3c(sc21)CCCC3 |  | 13 | 3 |
| 130 |  | Cc1csc2c1c(=O)n(CCc1ccccc1)c(=O)n2CC#N |  |  |  |
| 540 |  | COCCn1c(=O)n(CCc2ccccc2)c(=O)c2c(C)c(Cc3ccccc3)sc21 | 4 |  | 0.19 |
| 135 |  | Cc1csc2c1c(=O)n(CCc1ccccc1)c(=O)n2CCF |  |  |  |
| 1700 |  | CCOC(=O)c1sc2c(c1C)c(=O)n(CCc1ccccc1)c(=O)n2CCOC | 6 | 4 | 2 |
| 200 | 61.7 | COCCn1c(=O)n(CCc2ccccc2)c(=O)c2c(C)c(C(=O)N3CC(O)C3)sc21 |  |  |  |
| > 10000 |  | COCCn1c(=O)n(CCC2CCOCC2)c(=O)c2c(C)csc21 | 1 | 1 | 1 |
| 260 |  | COCCn1c(=O)n(CCc2ccccc2)c(=O)c2c(C)c(C(=O)N3CCCC3)sc21 |  |  |  |
| 97 |  | COCCn1c(=O)n(CCc2ccccc2)c(=O)c2c3c(sc21)CCC3 |  | 69 | 16 |
| 390 |  | CCn1c(=O)c2c3c(sc2n(CCOC)c1=O)CCCC3 | 3 | 17 | 5 |
| > 10000 |  | COCCn1c(=O)n(Cc2ccccc2)c(=O)c2c(C)csc21 | 1 | 1 | 1 |
| 480 | 58.3 | Cc1csc2[nH]c(=O)n(CCc3ccccc3)c(=O)c12 |  | 14 | 6 |
| 210 |  | COCCn1c(=O)n(CCc2ccccc2F)c(=O)c2c(C)csc21 |  |  |  |
| 3300 |  | COCCn1c(=O)n(CCc2ccccc2)c(=O)c2c(C)c(Cl)sc21 | 3 |  | 3 |
| 440 | 66.7 | COCCn1c(=O)n(CC(F)(F)c2ccccc2)c(=O)c2c(C)csc21 | 25 |  | 9 |
| 4900 |  | COCCn1c(=O)n(CC=C(F)F)c(=O)c2c(C)csc21 | 2 |  | 2 |
| 1500 |  | COCCn1c(=O)n(CC2(c3ccccc3)CC2)c(=O)c2c(C)csc21 | 7 |  | 1 |
| 1700 |  | Cc1csc2c1c(=O)n(CCc1ccccc1)c(=O)n2CCc1ccc(S(N)(=O)=O)cc1 | 6 | 4 | 2 |
